Data taken from patent EP0310305B1 (priority 1987, dated 1989).
pEC50: −log10 of the molar value. Read-outs that look alike come from different tables or passages of the source.

What was measured:
Ileum = assay: tissue or blood; settings: Rattus norvegicus
[1] = system: male rats (Crj Wister Rat; 180 - 240 g); assay: animal or person; assay type: in vivo; settings: for ED50: Rattus norvegicus, 0.5 h; for Entero-pooling ED₅₀: rat, in vivo, 30 min
Male Crj Wister rats = assay: animal or person; assay type: in vivo; settings: Rattus norvegicus, po, 6 h, read-out: Cathartic Effect ED50
healthy male volunteers = settings: human, in vivo, po
[2] = read-out: Intestinal Contraction
[3] = read-out: Intestinal Contrac-tion

Row | Molecule | pEC50 (Ileum; [2]) | ED50 ([1]; read-out: Entero-pooling ED₅₀) | also measured
1 | CCCCC(F)C(=O)CC[C@H]1[C@H](O)CC(=O)[C@@H]1C/C=C\CCCC(=O)OCC (stereo partly shown) [Test Drug 4, 13,14-dihydro-15-keto-16R,S-fluoro-PGE₂ ethyl ester] | 4.00 to 6.00 |  | ED50 ([1]; read-out: Enteropooling ED₅₀): 0.002 mg/kg
2 | CCCCC[C@H](O)/C=C/[C@H]1[C@H](O)CC(=O)[C@@H]1C/C=C\CCCC(=O)O [Test Drug 1, Prostaglandin E2, reference compound] |  |  | pEC50 (Ileum; [3]): > 6.00; ED50 (Male Crj Wister rats): > 10 mg/kg; ED50 ([1]; read-out: Entero-pooling ED50): 0.13 mg/kg
3 | CCCCC(F)C(=O)/C=C/[C@H]1[C@H](O)CC(=O)[C@@H]1C/C=C\CCCC(=O)OC (stereo partly shown) [Test Drug 7, 15-keto-16R,S-fluoro-PGE₂ methyl ester] | 4.00 to 6.00 |  | ED50 ([1]; read-out: Enteropooling ED₅₀): 0.002 mg/kg
4 | CCCCC[C@H](O)/C=C/[C@H]1C=CC(=O)[C@@H]1CCCCCCC(=O)O [Test Drug 11, PGA₁, reference compound] |  | 4 mg/kg | 
5 | CCCCCCC(F)C(=O)CC[C@@H]1[C@@H](C/C=C\CCCC(=O)O)[C@@H](O)C[C@H]1O (stereo partly drawn) [Test Drug 16, 13,14-dihydro-15-keto-20-ethyl-16R,S-fluoro-PGF₂α] | < 4.00 | 0.7 mg/kg | 
6 | 13,14-dihydro-15-keto-16R,S-fluoro-Δ²-PGA₁ methyl ester [Test Drug 10] |  |  | Entero-pooling ED₅₀ [1]: 0.2 mg/kg
7 | CCCCC(F)C(=O)/C=C/[C@H]1[C@H](O)CC(=O)[C@@H]1C/C=C\CCCC(=O)O (stereo partly shown) [Test Drug 6, 15-keto-16R,S-fluoro-PGE₂] | 4.00 to 6.00 |  | ED50 ([1]; read-out: Enteropooling ED₅₀): 0.002 mg/kg
8 | CCCCC[C@H](O)/C=C/[C@@H]1[C@@H](C/C=C\CCCC(=O)O)[C@@H](O)C[C@H]1O [Test Drug 19, PGF₂α, reference compound] | > 6.00 | 4.9 mg/kg | 
9 | CCCCC(F)C(=O)CC[C@@H]1[C@@H](C/C=C\CCCC(=O)OC)[C@@H](O)C[C@H]1O (stereo partly drawn) [Test Drug 13, 13,14-dihydro-15-keto-16R,S-fluoro-PGF₂α methyl ester] |  | 0.14 mg/kg | 
10 | CCCCCCC(F)C(=O)CC[C@@H]1[C@@H](C/C=C\CCCC(=O)OC)[C@@H](O)C[C@H]1O (stereo partly drawn) [Test Drug 17, 13,14-dihydro-15-keto-20-ethyl-16R,S-fluoro-PGF₂α methyl ester] | 4.00 to 6.00 | 0.6 mg/kg | 
11 | CCCCC(F)(F)C(=O)CC[C@@H]1[C@@H](C/C=C\CCCC(=O)OC)[C@@H](O)C[C@H]1O [Test Drug 14, 13,14-dihydro-15-keto-16,16-difluoro-PGF₂α methyl ester] | 4.00 to 6.00 | 0.2 mg/kg | 
12 | CCCCC(F)C(=O)/C=C/[C@@H]1[C@@H](C/C=C\CCCC(=O)OC)[C@@H](O)C[C@H]1O (stereo partly drawn) [Test Drug 18, 15-keto-16-R,S-fluoro-PGF₂α methyl ester] | < 4.00 | 0.15 mg/kg | 
13 | CCCCC(F)(F)C(=O)CC[C@H]1[C@H](O)CC(=O)[C@@H]1C/C=C\CCCC(=O)OC [Test Drug 8, 13,14-dihydro-15-keto-16,16-difluoro-PGE₂ methyl ester] | 4.00 to 6.00 |  | ED50 ([1]; read-out: Enteropooling ED₅₀): 0.0002 mg/kg
14 | CCCCC(F)C(=O)CC[C@@H]1[C@@H](C/C=C\CCCC(=O)O)[C@@H](O)C[C@H]1O (stereo partly drawn) [Test Drug 12, 13,14-dihydro-15-keto-16R,S-fluoro-PGF₂α] | < 4.00 | 0.2 mg/kg | 
15 | CCCCC(F)C(=O)CC[C@H]1[C@H](O)CC(=O)[C@@H]1C/C=C\CCCC(=O)OC (stereo partly shown) [Test Drug 2, 13,14-dihydro-15-keto-16R,S-fluoro-prostaglandin] |  |  | pEC50 (Ileum; [3]): 4.00 to 6.00; abnormality or malaise in belly at 8 hours after administration (healthy male volunteers): no particular abnormality nor malaise in belly; clinical observation (healthy male volunteers): no abnormality; other side effects (healthy male volunteers): no one complained of other side effects such as bellyache; ED50 (Male Crj Wister rats): 0.8 mg/kg; ED50 ([1]; read-out: Entero-pooling ED50): 0.003 mg/kg
16 | 13,14-dihydro-15-keto-16R,S-fluoro-Δ²-PGA₁ [Test Drug 9] |  |  | Entero-pooling ED₅₀ [1]: 0.2 mg/kg
17 | CCCCCC(F)C(=O)CC[C@H]1[C@H](O)CC(=O)[C@@H]1C/C=C\CCCC(=O)OC (stereo partly shown) [Test Drug 5, 13,14-dihydro-15-keto-16R,S-fluoro-20-methyl-PGE₂ methyl ester] | 4.00 to 6.00 |  | ED50 ([1]; read-out: Enteropooling ED₅₀): 0.002 mg/kg
18 | CCCCCC(F)C(=O)CC[C@@H]1[C@@H](C/C=C\CCCC(=O)OC)[C@@H](O)C[C@H]1O (stereo partly drawn) [Test Drug 15, 13,14-dihydro-15-keto-16R,S-fluoro-20-methyl-PGF₂α methyl ester] | 4.00 to 6.00 | 0.3 mg/kg | 
